Series [1] has as its system impacted chondrocytes. Description: Chondrocyte viability by live/dead staining in impacted cartilage. It is filed as cell-based, bovine. The following applies: for rescue of chondrocyte viability following AMD: AMPK activation (EX229 1 μM and 10 μM) or SIRT1 activation (SRT1720 1 μM and 5 μM); for prevention of impact-induced chondrocyte death: EX229 1 μM and 10 μM, SRT1720 1 μM and 5 μM. The method, then:
Bovine cartilage was cultured with metformin following an impact from a drop tower device.
As a preliminary assessment, live/dead staining was evaluated in impacted bovine cartilage treated with specific pharmacological activators of AMPK and SIRT1 or left untreated with appropriate vehicle (DMSO).
One half of the explant was assessed for cell viability via live/dead staining, and the other half was stained with MitoTracker Green and TMRM to evaluate mitochondrial health.

For series [2] the following is noted: cited from earlier work.
Series [3] relates to Complex I. The following applies: in vivo; cited from earlier work.
Series [4] relates to caspase 3/7. The experiment in a line: Apoptosis via activated caspase 3/7 signalling (CellEvent) in sublethally impacted cartilage explants. Format: cell-based, bovine. As to conditions: sublethal impact, 24 hr post-impact. The text has this: (§1) Bovine cartilage explants were impacted with sublethal force to evaluate the injury response in viable chondrocytes.
(§2) Apoptosis and Oxidative Stress: Cartilage was removed from subchondral bone and stained for apoptosis via activated caspase 3/7signalling (CellEvent, Invitrogen) or ROS (CellRox, Invitrogen) 24 hr post-impact, as shown in FIG. 1A and FIG. 1B, respectively.

Series [5] concerns Complex I. The following applies: role: inhibitor; cited from earlier work.
Series [6] concerns SIRT1. As to conditions: role: activator; cited from earlier work.
The conditions of series [7]: oral, anti-diabetic treatment; cited from earlier work.
In series [8] the test system is mitochondria in chondrocytes. The experiment in a line: Mitochondrial function (TMRM / MitoTracker Green red:green ratio) in cartilage explants. It is filed as cell-based, bovine.
In series [9] the test system is AMPK. The following applies: role: activator; cited from earlier work.
For series [10], the system named is reactive oxygen species (ROS). The experiment in a line: Oxidative stress / ROS staining (CellRox) in sublethally impacted cartilage explants. Format: cell-based, bovine. The following applies: sublethal impact, 24 hr post-impact, 10 mM.
Text: as §1, §2

Setting [11] is: impacted, EX229 1 μM and 10 μM (FIG. 4A), SRT1720 1 μM and 5 μM (FIG. 4B).

Results on four compounds are retold here after patent US20260306428A1 (The Trustees of Indiana University, priority 2023, published 2026).

Structures are written as SMILES.

As for `Cc1ccc(Oc2nc3cc(-c4ccc5c(ccn5C)c4)c(Cl)cc3[nH]2)cc1C(=O)O` [EX229], in series [1] (impacted), the “rescue of chondrocyte viability following AMD” value is on record as “rescues the AMD-induced decrease in chondrocyte viability” and the “prevention of impact-induced chondrocyte death” value is given as “neither of these activators completely prevented impact-induced chondrocyte death”. Also, the “cell viability (live/dead staining)” value in series [1] (setting [11]) was “improved cell viability in impacted chondrocytes in a dose-dependent manner”. Also, the “solubility in aqueous solutions” value in series [2] is “low solubility”.
As for `O=C(Nc1ccccc1-c1cn2c(CN3CCNCC3)csc2n1)c1cnc2ccccc2n1` [SRT1720], in [1] (impacted), the “rescue of chondrocyte viability following AMD” value is reported as “rescues chondrocyte viability following AMD” and the “prevention of impact-induced chondrocyte death” value is reported as “neither of these activators completely prevented impact-induced chondrocyte death”. In [1] (setting [11]), the “cell viability (live/dead staining)” value is given as “improved cell viability in impacted chondrocytes in a dose-dependent manner”. Besides, the “solubility in aqueous solutions” value in [2] is given as “low solubility”.
On to `CCC1(CCC(C)C)C(=O)NC(=O)NC1=O` [amobarbital], for which, in [3], the “block of mitochondrial electron transport at complex I” value was “blocks mitochondrial electron transport at complex I to prevent chondrocyte dysfunction and apoptosis”.
As for `CN(C)C(=N)NC(=N)N.Cl` [metformin, 1,1-dimethylbiguanide hydrochloride], the “cell viability (live/dead staining)” value is “improved cell viability” in series [1] (drop tower impact, 24 hr post-impact, 10 mM) and “completely rescue impacted chondrocytes” in series [1] (drop tower impact, 24 hr post-impact, 50 mM). Moreover, the “cell viability (live/dead staining), data not shown” value in series [1] (impacted bovine cartilage, 125 mM, trends similar to mitochondrial function) is given as “showed similar trends”. Moreover, the “apoptotic signalling (caspase 3/7)” value in series [4] (1 mM) is “only partially reduced apoptotic signalling”. Further, the “apoptosis (caspase 3/7 signalling)” value in series [4] (1 mM, 5 mM and 10 mM) is recorded as “dose-dependent decrease”. Moreover, the “apoptosis (caspase 3/7)” value in [4] (10 mM) is listed as “completely suppressed apoptosis”. In addition, the “inhibition of Complex I” value in [5] is on record as “inhibiting Complex I”. Moreover, the “activation of SIRT1” value in [6] is “activates AMPK and SIRT1”. Also, in series [7], the side effects entry is “nausea, vomiting, diarrhoea, and stomach pain”. Further, in [8] (impacted explants, 24 hours post-impact, 10 mM and 50 mM), the “mitochondrial dysfunction in impacted chondrocytes” value is “rescues mitochondrial dysfunction in impacted chondrocytes in a dose-dependent manner”. Besides, the “mitochondrial function of impacted chondrocytes” value in [8] (impacted, 125 mM, vs untreated impacted chondrocytes) is “not significantly different from that of untreated impacted chondrocytes”. Further, the “mitochondrial function of non-impacted chondrocytes” value in series [8] (non-impacted, 125 mM) is recorded as “slightly declined”. Besides, the “activation of AMPK” value in [9] is recorded as “activates AMPK”. Besides, the “oxidative stress (ROS)” value in series [10] is recorded as “full suppression of oxidative stress”.
